{"source": "patent US7595300B2", "about": "“7-quinolyl ketolide antibacterial agents” (priority 2005, dated 2009)", "key": {"[1]": {"system": "cryopreserved human hepatocytes", "settings": "4 h", "description": "In a second experiment, the hepatotoxicity of compound (III) was estimated using cryopreserved human hepatocytes pooled from four donors, measuring leakage of cellular lactate dehydrogenase (LDH). Each donor was selected for the study based on the activity of cytochrome P450 (phase I) and uridine diphosphoglucuronosyl transferases (phase II). Hepatocytes were initially prepared from human livers by collagenase perfusion and subsequently cryogenically frozen. Viable cryopreserved hepatocytes were enriched in accordance with BD Biosciences Discovery Labware SOP HP-10. Hepatocytes were rapidly thawed, pooled and incubated in Williams' E medium at a density of 2×10^6 cells/ml at 37° C. in an incubator for 30 min. After incubation, the viable cells were separated with 24% Percoll gradient and resuspended in WME at a density of 1×10^6 cells/ml. Initial viability was determined by trypan blue exclusion. Hepatocytes were incubated in a 24-well plate and each well contained 0.25×10^6 cells in 0.5 ml of WME medium. Three wells were used for determination of total LDH activity (cells+media) and the background activity (incubation media only) at the 0 time point. Briefly, a 100 μl aliquot of cell suspensions from these wells was immediately taken and rapidly centrifuged at 14,000 rpm for 15 seconds. The supernatants were transferred to microcentrifuge tubes and stored at ≦4° C. for measurement of LDH activity present in medium at the 0 time point. Another 100 μl aliquot of cell suspension from same wells was removed, mixed with 100 μl of 0.4% Triton and stored at ≦4° C. for measurement of total LDH activity.\nHepatocytes in other wells were incubated with test article at the concentrations of 200, 67, 22, 7.4, 2.5 and 0.82 μM. […] Hepatocytes were exposed to the test substance and the positive control for 4 hours. After incubation, 100 μl aliquots of cell suspensions were taken and rapidly centrifuged at 14,000 rpm for 15 seconds. The supernatants were transferred to microcentrifuge tubes and stored at ≦4° C. for measurement of LDH activity in incubation medium.\nLDH activity in both total (medium+cells) and medium was determined by monitoring the enzymatic formation of NADH from NAD^+ in the presence of L-lactic acid. Briefly, post-centrifugation supernatants were diluted 1:40 with phosphate-buffered saline (pH 7.4). A 100 μl aliquot was mixed with 100 μl LDH reagent containing 7.5 mM NAD^+, 50 mM L-lactic acid in 250 mM Tris-HCl buffer (pH 8.9) in a 96-well plate. The increase in fluorescence due to the formation of NADH were kinetically monitored at Ext. 360 nm, Em. 460 nm, using a Fluorescence plate reader. The percent LDH leakage from cells was calculated by comparing incubation medium values with total LDH activity (see Equation below). The cell viability at each concentration of test articles was reported. % LDH leakage=(LDH activity in medium sample/total LDH activity)*100 The data are summarized in Table 17."}, "anesthetized rats": {"system": "anesthetized rats", "test": "Cardiovascular safety, QT interval in anesthetized rats, i.v. bolus", "type": "in vivo, rat", "settings": "rat", "description": "Total doses of drug (0.47, 0.94, 1.88, 3.75, 7.5, and 15 mg/kg) or equivalent volumes of vehicle were administered incrementally as an i.v. bolus to groups of 6 anesthetized rats or guinea pigs at 0, 15, 30, 45, 60, and 75 minutes. Hemodynamic parameters including mean arterial pressure (MAP) and heart rate (HR), and ECG parameters (QT and PR intervals and QRS duration) were recorded. For the rat, injection of vehicle gave a 16% increase in QT interval over baseline. For the guinea pig, injection of vehicle gave a 3% increase in QT interval over baseline."}, "male beagle dogs": {"system": "male beagle dogs", "test": "Cardiovascular safety in telemetered dogs, intravenous infusion", "type": "in vivo, dog", "description": "Four male beagle dogs, obtained from Marshall Farms USA, Inc. (North Rose, N.Y.), were surgically instrumented with telemetry transducers (Data Sciences International, type RL11M2-D70-PCT) to assess arterial blood pressure (ABP) and lead II electrocardiogram (ECG) parameters.\nThe dosing route was an intravenous infusion jugular vein access). The infusion was accomplished using a CADD Prizm® ambulatory infusion pump attached to a jacket worn by the dog. The dose duration for the intravenous infusion was 30 min for all doses administered, except the last dose (30 mg/kg) where the infusion period was extended to 45 min to accommodate the larger dose volume required for this dose. The vehicle dose and diluent for the test article was 0.05-M sodium citrate in sterile water for injection.\nThere was one treatment group of four non-naïve dogs and the study was comprised of both pharmacokinetic and telemetry phases, as summarized in the dose administration table for compound (III) (Table 16) below. At least one week was given between dosings to allow clearance of the drug.\nFor the telemetry phase of the study, collection of hemodynamic and lead II ECG data commenced approximately 30 min prior to dosing and ended approximately 6 h post-dose. Systolic blood pressure (SBP), diastolic blood pressure (DBP), HR, and lead II ECG variables (PR interval, QRS duration, RR interval, and QT interval) were acquired continuously from each animal during each dose day recording session. The QT interval was corrected for variations in HR using the Fridericia's QTc interval (QTcF).\nData acquired following treatment with vehicle or compound (III) were extracted at −10, −5, 0, 10, 20, 30, 35, 45, 60, 90, 150, 270, and 390 min relative to the start dose time. For all blood pressure and ECG parameters, data following treatment with compound (III) were compared to the time-matched vehicle dose data. Statistical comparisons were made using a one-way ANOVA for repeated measures, followed by the Dunnett's post-hoc test when statistical significance was detected with the ANOVA. Changes were considered statistically significant when p<0.05.\nA complete visual scan of the ECG waveforms from the vehicle, 11 mg/kg dose, and 15 mg/kg dose of compound (III) was conducted. All waveforms were examined for gross changes in waveform morphology and arrhythmogenesis."}, "[2]": {"settings": "dog, intravenous 11 and 15 mg/kg"}}, "note": "Where two headings read alike, the source gives them in different places."}
{"smiles": "CC1CC(N(C)C)C(O)C(O[C@@H]2[C@@H](C)C(=O)[C@](C)(F)C(=O)O[C@H](CCF)[C@@]3(C)OC(=O)N[C@@H]3[C@@H](C)C(=O)[C@H](C)C[C@@]2(C)OC/C=C/c2ccc3cccnc3c2)O1", "note": "(some centres unmarked) [Compound (III), 6-O-(1-(7-quinolyl)-3-propenyl)-11-amino-11-deoxy-3-(descladinosyl)-3-oxo-2,15-difluoroerythromycin A-11,12-cyclic carbamate]", "values": [{"measurement": "LDH leakage (%)", "setting": "[1]; 0.82 μM", "result": "6.1 ± 0.63", "unit": "%"}, {"measurement": "Viability (%)", "setting": "[1]; 0.82 μM", "result": "94 ± 0.63", "unit": "%"}, {"measurement": "LDH leakage (%)", "setting": "[1]; 2.5 μM", "result": "3.9 ± 2.8", "unit": "%"}, {"measurement": "Viability (%)", "setting": "[1]; 2.5 μM", "result": "96 ± 2.8", "unit": "%"}, {"measurement": "LDH leakage (%)", "setting": "[1]; 7.4 μM", "result": "10 ± 2.9", "unit": "%"}, {"measurement": "Viability (%)", "setting": "[1]; 7.4 μM", "result": "90 ± 2.9", "unit": "%"}, {"measurement": "LDH leakage (%)", "setting": "[1]; 22 μM", "result": "12 ± 0.74", "unit": "%"}, {"measurement": "Viability (%)", "setting": "[1]; 22 μM", "result": "88 ± 0.74", "unit": "%"}, {"measurement": "LDH leakage (%)", "setting": "[1]; 67 μM", "result": "6.7 ± 1.3", "unit": "%"}, {"measurement": "Viability (%)", "setting": "[1]; 67 μM", "result": "93 ± 1.3", "unit": "%"}, {"measurement": "LDH leakage (%)", "setting": "[1]; 200 μM", "result": "7.6 ± 4.2", "unit": "%"}, {"measurement": "Viability (%)", "setting": "[1]; 200 μM", "result": "92 ± 4.2", "unit": "%"}, {"measurement": "effect on the QT interval in the rat", "setting": "anesthetized rats", "result": "did not prolong the QT interval"}, {"measurement": "effect on mean HR", "setting": "male beagle dogs; dog, intravenous 11 mg/kg", "result": "no effect"}, {"measurement": "effect on the QRS duration", "setting": "male beagle dogs; dog, intravenous 11 mg/kg", "result": "no effect"}, {"measurement": "effect on mean HR", "setting": "male beagle dogs; dog, intravenous 15 mg/kg, at the 90 and 390 time points", "result": "Significant (p<0.05) decreases in mean HR"}, {"measurement": "effect on QTcF", "setting": "male beagle dogs; dog, intravenous 30 mg/kg, 35 to 90 min postdose, vs time-matched vehicle", "result": "lengthening of the QTcF interval"}, {"measurement": "effect on the PR interval", "setting": "male beagle dogs; dog, intravenous 30 mg/kg, 150 to 390 min, p<0.05 at 390 min", "result": "increase in the PR interval"}, {"measurement": "effect on HR", "setting": "male beagle dogs; dog, intravenous 30 mg/kg, 390 min postdose", "result": "statistically significant (p<0.05) reduction in the HR"}, {"measurement": "ABP parameters (SBP, DBP, MAP)", "setting": "male beagle dogs; dog, intravenous 11, 15, and 30 mg/kg, during and up to 150 min after infusion", "result": "remained relatively unchanged"}, {"measurement": "effect on the QT interval relative to the vehicle control", "setting": "male beagle dogs; dog, intravenous 11, 15, or 30 mg/kg", "result": "no significant effects"}, {"measurement": "effect on QTcF", "setting": "male beagle dogs; [2]", "result": "no significant effects"}, {"measurement": "effect on the PR interval", "setting": "male beagle dogs; [2]", "result": "No significant effects"}, {"measurement": "waveform morphology or ECG rhythm", "setting": "male beagle dogs; dog, intravenous 11 or 15 mg/kg", "result": "no abnormalities"}, {"measurement": "effect on the QRS duration", "setting": "male beagle dogs; dog, intravenous 15 and 30 mg/kg, pre-drug baseline also lower", "result": "Significant (p<0.05) decreases in QRS duration"}, {"measurement": "RR interval", "setting": "male beagle dogs; dog, intravenous, study period", "result": "remained relatively unchanged"}, {"measurement": "heart rate-corrected QT interval (QTc), FIG. 6", "setting": "male beagle dogs; male beagle dogs, intravenous infusion 11 mg/kg or 15.8 mg/kg over 30 minutes", "result": "No significant increase in QTc"}, {"measurement": "effect relative to vehicle", "setting": "male beagle dogs; telemetered dogs, 30 mg/kg", "result": "no significant effect"}, {"measurement": "effects on cardiac parameters, including QT interval", "setting": "male beagle dogs; telemetered dogs, intravenous infusion up to 15 mg/kg", "result": "no effects"}]}
